Earlier results on one molecule are cited in patent US20050147629A1, “Pharmaceutical formulation comprising non-peptide renin inhibitor and surfactant” (priority 2002, published 2005).

For this series the following is noted: readily soluble = at least 1 g per 100 ml, poorly soluble = less than 1 g per 100 ml (b7).

Regarding `COCCCOc1cc(C[C@@H](C[C@H](N)[C@@H](O)C[C@H](C(=O)NCC(C)(C)C(N)=O)C(C)C)C(C)C)ccc1OC` [formula Ia], the solubility in water result was “very readily soluble in water”.
